Experimental data: ChEMBL document CHEMBL1201862, “PubChem BioAssay data set” (2004)
Where a name gives a salt, the structure may show the parent alone. Activity calls are given as the source filed them.

What was measured:
[1] = HepG2 cell cytotoxicity, dose response, cytotoxicity control, cherry-picked samples (AID 1159577); format: functional, cell-based
[2] = P. falciparum Dd2 growth inhibitors, dose response, SYBR Green, cherry-picked samples (AID 1159567); format: functional, cell-based
[3] = Dose-response inhibition of insulin secretion in a rat insulinoma line at 5 mM glucose (AID 1117331); format: functional, cell-based; settings: INS-1E
Prothrombin = Prothrombin (Homo sapiens, UniProt P00734); test: Thrombin 1536 HTS Dose Response Confirmation. [Related pubchem assays: 1046 (Thrombin 1536 HTS; hits were confirmed in this assay)]; format: functional
[4] = P. falciparum Dd2 growth inhibitors, dose response, SYBR Green, dry powder samples, set 9 (AID 1159568); format: functional, cell-based
Major prion protein = Major prion protein (Homo sapiens, UniProt P04156); format: functional, cell-based
cells [5] = test: cells
[6] = Late stage counterscreen for inhibitors of Trypanosoma brucei methionyl tRNA synthetase (MetRS): Luminescence-based cell-based high throughput dose response assay to identify compounds that are cytotoxic to Jurkat human T lymphocyte cells.; format: functional
[7] = target: RNA-editing ligase 1, mitochondrial (Trypanosoma brucei brucei, UniProt P86926); test: TbREL1 ligase inhibitors, dose response, biochemical, fluorescence, Trypanosoma brucei (AID 1117295); format: functional
[8] = target: Induced myeloid leukemia cell differentiation protein Mcl-1 (Homo sapiens, UniProt Q07820); format: functional
cells [9] = test: cells; remark: listed apart in the source
[10] = target: T1, Oxysterols receptor LXR-beta (Homo sapiens, UniProt P55055); format: functional, cell-based
T1 sequence (P55055 whole entry): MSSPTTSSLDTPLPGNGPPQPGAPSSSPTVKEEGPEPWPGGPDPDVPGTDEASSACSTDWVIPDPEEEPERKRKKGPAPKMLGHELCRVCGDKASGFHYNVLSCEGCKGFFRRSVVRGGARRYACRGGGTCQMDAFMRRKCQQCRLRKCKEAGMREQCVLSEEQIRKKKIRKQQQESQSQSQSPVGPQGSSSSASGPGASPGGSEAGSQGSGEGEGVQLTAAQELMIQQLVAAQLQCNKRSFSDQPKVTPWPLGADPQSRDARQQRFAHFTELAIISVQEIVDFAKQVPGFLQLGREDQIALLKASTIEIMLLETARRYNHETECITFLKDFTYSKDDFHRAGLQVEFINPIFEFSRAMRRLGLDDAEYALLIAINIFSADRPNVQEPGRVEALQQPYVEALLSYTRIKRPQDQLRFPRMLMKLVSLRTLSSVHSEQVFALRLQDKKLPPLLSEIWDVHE

Kallikrein-7 = Kallikrein-7 (Homo sapiens, UniProt P49862); test: Fluorescence Intensity-based biochemical primary high throughput dose response assay to identify activators of kallikrein-7 (K7) zymogen.
[11] = target: T2, Small ubiquitin-related modifier 1 (Homo sapiens, UniProt P63165); test: inhibitors of SUMO1 partner interactions, dose response, biochemical, FRET (AID 624383); format: functional; settings: read-out: IC50_Mean
[12] = target: T2, Small ubiquitin-related modifier 1; test: inhibitors of SUMO1 peptide binding, dose response, biochemical, fluorescence polarization, uHTS hits (AID 624382); format: functional; settings: read-out: IC50_Mean
Paired box protein Pax-8 = Paired box protein Pax-8 (Homo sapiens, UniProt Q06710); test: inhibitors of PAX8-driven TPO luciferase reporter, dose response, RMG-I cells, cherry-pick (AID 687027); format: functional, cell-based;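 note: luciferase reporter driven by Pax8 target thyroperoxidase promoter measured by SteadyGlo luminescence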
[13] = target: Endoplasmic reticulum aminopeptidase 1 (Homo sapiens, UniProt Q9NZ08); test: ERAP1 aminopeptidase inhibitors, dose response, biochemical, cherry-pick, set 2, plate reader (AID 743314)
[14] = target: Solute carrier family 12 member 2/member 5 (Homo sapiens, UniProt P55011+Q9H2X9); test: KCC2 and NKCC1 inhibition by rubidium flux, cell-based, NKCC1 counter-screen (AID 1734); format: functional, HEK293
[15] = target: T1, Oxysterols receptor LXR-beta; format: functional, cell-based; remark: listed apart in the source
[16] = target: Luciferin 4-monooxygenase (Photinus pyralis, UniProt P08659); test: firefly luciferase enzyme inhibitors, dose response, biochemical, luminescence (AID 1891)
[17] = Luminescence Cell-Based Dose Confirmation HTS to Identify Inhibitors of Platelet Dense Granule Release. [Related pubchem assays: 1663 (Primary HTS), 1678 (Summary of Project)]; format: functional
Protein skinhead-1 = target: T3, Protein skinhead-1 (Caenorhabditis elegans, UniProt P34707); format: functional
T3 sequence (P34707 whole entry): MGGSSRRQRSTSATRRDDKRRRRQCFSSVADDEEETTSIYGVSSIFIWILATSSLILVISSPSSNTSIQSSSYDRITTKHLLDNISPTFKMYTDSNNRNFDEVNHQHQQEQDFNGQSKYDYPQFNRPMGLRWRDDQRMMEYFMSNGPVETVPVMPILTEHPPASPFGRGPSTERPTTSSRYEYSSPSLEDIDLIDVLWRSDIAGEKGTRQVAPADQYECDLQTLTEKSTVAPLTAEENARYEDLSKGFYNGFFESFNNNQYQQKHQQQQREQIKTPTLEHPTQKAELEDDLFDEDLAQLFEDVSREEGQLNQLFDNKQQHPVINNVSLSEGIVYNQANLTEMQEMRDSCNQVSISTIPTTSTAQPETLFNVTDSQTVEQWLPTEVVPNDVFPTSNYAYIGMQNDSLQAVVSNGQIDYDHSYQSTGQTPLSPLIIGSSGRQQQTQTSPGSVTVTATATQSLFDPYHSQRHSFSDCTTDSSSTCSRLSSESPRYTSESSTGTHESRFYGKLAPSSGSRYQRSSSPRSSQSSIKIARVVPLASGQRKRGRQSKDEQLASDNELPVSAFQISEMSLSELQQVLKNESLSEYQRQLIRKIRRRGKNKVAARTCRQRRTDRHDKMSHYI

[18] = Counterscreen for inhibitors of Trypanosoma brucei methionyl tRNA synthetase (MetRS): Luminescence-based cell-based high throughput dose response assay to identify compounds that are cytotoxic to Jurkat human T lymphocyte cells.; format: functional
[19] = target: T4, Methionyl-tRNA synthetase, putative (Trypanosoma brucei brucei, UniProt Q38C91); format: functional, Trypanosoma brucei brucei strain 927/4 GUTat10.1
T4 sequence (Q38C91 whole entry): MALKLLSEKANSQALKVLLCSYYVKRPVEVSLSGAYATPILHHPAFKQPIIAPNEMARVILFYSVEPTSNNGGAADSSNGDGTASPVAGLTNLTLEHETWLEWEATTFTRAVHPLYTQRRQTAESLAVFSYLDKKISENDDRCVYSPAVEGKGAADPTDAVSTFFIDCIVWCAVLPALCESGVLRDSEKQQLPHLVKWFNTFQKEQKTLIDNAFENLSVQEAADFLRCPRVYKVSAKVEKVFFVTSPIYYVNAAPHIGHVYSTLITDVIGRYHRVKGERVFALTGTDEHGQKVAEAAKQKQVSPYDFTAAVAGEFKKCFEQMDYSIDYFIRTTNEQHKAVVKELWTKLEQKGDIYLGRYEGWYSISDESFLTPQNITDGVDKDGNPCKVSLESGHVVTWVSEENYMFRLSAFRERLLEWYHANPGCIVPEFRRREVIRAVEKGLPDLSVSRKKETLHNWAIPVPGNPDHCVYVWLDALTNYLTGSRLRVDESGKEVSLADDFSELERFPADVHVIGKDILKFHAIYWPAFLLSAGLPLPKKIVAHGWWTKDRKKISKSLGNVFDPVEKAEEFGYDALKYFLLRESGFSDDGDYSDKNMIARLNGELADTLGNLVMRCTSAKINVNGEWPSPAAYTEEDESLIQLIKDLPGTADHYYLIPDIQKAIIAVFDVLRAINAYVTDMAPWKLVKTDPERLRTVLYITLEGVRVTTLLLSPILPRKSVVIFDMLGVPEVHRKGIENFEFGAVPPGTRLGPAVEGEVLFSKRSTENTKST

[20] = target: T4, Methionyl-tRNA synthetase, putative; format: functional, Trypanosoma brucei brucei strain 927/4 GUTat10.1; remark: listed apart in the source
[21] = inhibitors of intracellular T. cruzi replication, confirmation, NIH3T3 host cells, beta-gal luminescence (AID 2044); format: functional, cell-based;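 note: intracellular parasites grown in NIH/3T3 mouse fibroblasts as host cells; luminescent beta-galactosidase reporter signal from transgenic T. cruzi replicating inside host cells; inhibitors lower the luminescence signal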
cells [22] = test: cells; remark: listed apart in the source
[23] = Luminescence Cell-Based Dose Retest to Confirm Inhibitors of Cancer Stem Cells. [Related pubchem assays (depositor defined):AID2717, AID2721]; format: functional; settings: Homo sapiens
[24] = cytotoxicity toward NIH3T3 fibroblasts, dose response, counter-screen, cell-based, ATP luminescence, mouse fibroblasts (AID 2010); format: functional;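 note: cells exposed to compound for about 90 hours before reading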
[25] = target: T5, Dual specificity protein phosphatase 6 (Rattus norvegicus, UniProt Q64346); test: MKP-3 phosphatase inhibitors, primary screen, biochemical, rat enzyme, in vitro (AID 425)
T5 sequence (Q64346 whole entry): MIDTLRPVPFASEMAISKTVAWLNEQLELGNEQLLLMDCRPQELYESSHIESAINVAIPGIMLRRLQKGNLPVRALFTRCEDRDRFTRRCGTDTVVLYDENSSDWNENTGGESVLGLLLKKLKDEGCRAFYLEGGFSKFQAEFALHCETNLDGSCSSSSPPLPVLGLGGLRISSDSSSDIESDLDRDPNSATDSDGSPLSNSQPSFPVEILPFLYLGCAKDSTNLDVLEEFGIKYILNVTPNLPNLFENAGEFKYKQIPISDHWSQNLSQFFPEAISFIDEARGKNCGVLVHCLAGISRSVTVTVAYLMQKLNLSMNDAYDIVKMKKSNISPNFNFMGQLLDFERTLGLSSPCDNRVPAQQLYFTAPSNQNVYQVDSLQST

[26] = reduction of Shn3 3'UTR firefly luciferase signal, dose response, Schnurri-3 inhibitor project, cell-based, Clone20 osteoblasts, cherry-pick, set 2 (AID 720490); format: functional;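 note: actives lower the luminescence signal as inhibitors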
[27] = Shn3 3'UTR reporter inhibitors, dose response, cell-based, Clone20 osteoblasts, firefly luciferase, cherry-picked (AID 624132); format: functional;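 note: firefly luciferase luminescence from reporter carrying the Shn3 3'UTR in osteoblasts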
[28] = HepG2 cell cytotoxicity, dose response, cytotoxicity control for Shn3 inhibitor project, CellTiter-Glo, cherry-picked (AID 624134); format: functional, cell-based
[29] = control 3'UTR Renilla luciferase suppression, dose response, counter-screen for Shn3 inhibitor project, cell-based, Clone20-Shn3RL, cherry-picked (AID 624133); format: functional

COc1cc(CN2C[C@@H]3N[C@H](C2)[C@H]3c2ccc(/C=C/c3ccccc3)cc2)cc(OC)c1
AC50 [1]: 7.85 µM (active) | AC50 [2]: 2.11 µM (active)

C[C@@H](C1=C(CCN(C)C)Cc2ccccc21)c1ccccn1
IC50 [3]: 8.41 µM (inactive)

COc1cc(CCC(=O)Nc2cccc(C(F)(F)F)c2)cc(OC)c1OC
IC50 (Prothrombin): > 50 µM (not active)

O=C(NC(=S)Nn1cnnc1)c1ccccc1Cl
IC50 (Prothrombin): > 50 µM (not active)

C[C@@H]1CCCCO[C@@H](CN(C)S(=O)(=O)c2ccc(F)cc2)[C@H](C)CN([C@H](C)CO)C(=O)c2cc(N(C)C)ccc2O1
AC50 [4]: 4.62 µM (active)

COc1ccccc1Cn1c(=S)[nH]c2ccccc2c1=O
IC50 (Major prion protein): 3.49 µM (active) | IC50 (cells [5]): > 138 µM (inactive)

O=C(NCc1nc2ccccc2[nH]1)C1=C[C@H](c2ccccc2)C[C@H](OCc2ccc(CO)cc2)O1
IC50 [6]: > 83.3 µM (inactive)

O=C(CSc1nnc(-c2ccco2)c(-c2ccco2)n1)c1ccccc1
IC50 [7]: > 96.6 µM (inactive) | IC50 [8]: 3.19 µM (active)

CCOC(=O)c1cc(-c2cccc(O)c2)oc1C
EC50 (cells [9]): > 67.5 µM (inactive) | EC50 [10]: > 67.5 µM (inactive)

O=C(Cc1cc(=O)oc2cc(O)ccc12)NN=Cc1ccc(N(CCCl)CCCl)cc1
EC50 (Kallikrein-7): > 23.2 µM (inactive) | IC50 [11]: 8.3 µM (active) | IC50 [12]: > 66.6 µM (inactive)

C[C@@H]1CN([C@@H](C)CO)C(=O)c2cc(N(C)C)ccc2O[C@@H](C)CCCCO[C@H]1CN(C)S(=O)(=O)c1ccc(F)cc1
AC50 (Paired box protein Pax-8): 6.76 µM (active) | AC50 [4]: 19.4 µM (active)

CCCCCCCN1C(Nc2ccccc2)=NC[C@@H]1CC(C)C
IC50 [7]: > 96.6 µM (inactive)

CCN(CC)Cc1c(O)ccc2cc(-c3nc4ccccc4n3C)c(=O)oc12
AC50 [13]: 1.8 µM (active)

O=C(O)CSc1ccnc2cc(Cl)ccc12
IC50 (Major prion protein): 4.04 µM (active) | IC50 (cells [5]): > 138 µM (inactive)

CN(Cc1ccccc1)S(=O)(=O)c1ccc(Cl)c(C(=O)NCCc2ccccn2)c1
IC50 [14]: 2.5 µM (active)

COc1cccc(-c2noc(-c3cccs3)n2)c1
EC50 [15]: > 67.6 µM (inactive) | EC50 [16]: 7.26 µM (active) | EC50 [17]: > 112 µM (not active) | IC50 (Protein skinhead-1): 13.7 µM (active)

Cc1cccn2c(=O)c3cc(C(=O)N4CCOCC4)n(C)c3nc12
EC50 (Kallikrein-7): > 2.58 µM (active)

O=C(Nc1cccnc1)c1ccc(COc2ccccc2Cl)o1
IC50 [14]: 12.1 µM (active)

Cc1ccc2c(c1)N=C(c1ccccc1)CC(C(Cl)Cl)=N2
EC50 [15]: > 67.5 µM (inactive)

COc1ccc(OCC(O)CNC(=O)Nc2ccc(Cl)cc2)cc1 (centres undefined)
IC50 [6]: > 83.3 µM (inactive) | IC50 [18]: 83.3 µM (inactive) | IC50 [19]: 4.66 µM (active) | IC50 [20]: 4.39 µM (active)

CN1CCC(OC(=O)c2cccc(Cl)c2)CC1
EC50 [21]: < 0.1 µM (active) | EC50 (cells [22]): 0.102 µM (active) | AC50 [23]: 1.3 µM (active) | EC50 [24]: > 60 µM (not active)

Cc1c(N=c2c(=O)c3ccccc3c2=O)c(=O)n(-c2ccccc2)n1C
IC50 [25]: > 100 µM (not active)

CCN1CCCC(OC(=O)C(c2ccccc2)c2ccccc2)C1 (centres undefined) [PIPERIDOLATE HYDROCHLORIDE]
IC50 [3]: 18.2 µM (inactive)

O=C(N/N=C/c1ccc([N+](=O)[O-])o1)c1cn(-c2ccccc2)nc1-c1ccccc1
EC50 [21]: < 0.1 µM (active) | EC50 (cells [22]): 0.054 µM (active) | EC50 [24]: > 60 µM (not active)

C(=C\c1ccc([C@@H]2[C@@H]3CN(Cc4nccs4)C[C@H]2N3)cc1)/c1ccccc1
AC50 [1]: 7.83 µM (active) | AC50 [2]: 3.67 µM (active)

COc1cccc(-n2c(C)nc3c(cnn3-c3ccc(Cl)cc3)c2=O)c1
AC50 [26]: 2.14 µM (active) | AC50 [27]: 0.391 µM (active) | AC50 [28]: 61.4 µM (active) | AC50 [29]: 2.98 µM (active)
